Test results taken from PMC5958214, “Chloroplastic Serine Hydroxymethyltransferase From Medicago truncatula: A Structural Characterization” (Frontiers in Plant Science, 2018).

Key:
[1] = molecular target: T1, MtSHMT3 (chloroplastic serine hydroxymethyltransferase) (Medicago truncatula, UniProt G7ILW0); assay: X-ray crystallography, […] A; type: binding
T1 construct: gene MTR_2g018290; residues 82-533, targeting peptide removed (N-truncated at F82, begins FLDYGLSEA); His6-TEV tag cut, Ser-Asn-Ala linker left; E. coli BL21 Gold, pMCSG68; homotetramer, ~197 kDa theoretical; active site shared within tight dimer

[2] = molecular target: T1, MtSHMT3 (chloroplastic serine hydroxymethyltransferase); assay: X-ray crystallography, […] A; type: binding; details: covalent; internal aldimine (Schiff base) with K318; full occupancy in chains A and B; crystals from 55% Tacsimate pH 7.0; PLP from expression culture
[3] = molecular target: chloroplast-targeted serine hydroxymethyltransferase from Medicago truncatula (MtSHMT3), residues 82-533 (Medicago truncatula); assay: SEC; HiLoad Superdex 200 16/60; 25 mM Hepes-NaOH pH 7.5, 100 mM KCl, 50 mM NaCl, 1 mM TCEP; standard curve from thyroglobulin, gamma-globulin, ovalbumin and myoglobin
[4] = molecular target: chloroplast-targeted serine hydroxymethyltransferase from Medicago truncatula (MtSHMT3), residues 82-533 (Medicago truncatula); assay: crystal structure; three non-isomorphous crystal forms (holo/apo in Tacsimate pH 7.0; Ser-soaked in MES pH 6.5, PEG 3350, ammonium acetate; selenourea-soaked); assemblies analysed with PISA

T1 sequence (G7ILW0 entry or part of it): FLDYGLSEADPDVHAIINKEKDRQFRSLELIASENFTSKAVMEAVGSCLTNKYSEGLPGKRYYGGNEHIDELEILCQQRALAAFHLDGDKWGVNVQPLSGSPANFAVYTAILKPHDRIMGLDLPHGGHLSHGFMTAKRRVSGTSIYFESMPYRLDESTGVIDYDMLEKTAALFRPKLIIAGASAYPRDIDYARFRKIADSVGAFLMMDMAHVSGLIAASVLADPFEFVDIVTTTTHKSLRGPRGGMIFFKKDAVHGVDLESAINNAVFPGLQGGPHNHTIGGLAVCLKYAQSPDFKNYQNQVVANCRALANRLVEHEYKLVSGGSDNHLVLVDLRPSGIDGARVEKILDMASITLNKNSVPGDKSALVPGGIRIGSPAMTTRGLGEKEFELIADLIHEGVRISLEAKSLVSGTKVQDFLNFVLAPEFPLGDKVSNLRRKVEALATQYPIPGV

Compound: N[C@@H](CO)C(=O)O [Ser, L-serine]
- X-ray crystallography, 1.91 A ([1]; covalent, PLP-Ser external aldimine in chains A and D, crystals soaked with 200 mM Ser for 2 h, pH 6.5, no tetrahydrofolate): PLP-Ser external aldimine (chains A and D)

Compound: NCC(=O)O [Gly, glycine]
- X-ray crystallography, 1.91 A ([1]; Ser-soaked crystal, covalent PLP-Gly external aldimine in chains B and F, free Gly with PLP internal aldimine in chains E and H, no tetrahydrofolate): PLP-Gly external aldimine (chains B and F), and PLP internal aldimine with free Gly

Compound: Cc1ncc(COP(=O)(O)O)c(C=O)c1O [PLP, pyridoxal 5′-phosphate]
- X-ray crystallography, 1.74 A [2]: two protein chains (A and B) contain the PLP bound as a Schiff base internal aldimine

Compound: chloroplast-targeted serine hydroxymethyltransferase from Medicago truncatula (MtSHMT3), residues 82-533 (enzyme)
- stoichiometry N [3]: 4
- stoichiometry N [4]: 4
